{"source": "patent US20050152858A1", "about": "“Solubilizing agents for active or functional organic compounds” (ISP INVESTMENTS INC., priority 2003, published 2005)", "key": {"[1]": {"experiment": "Enhancement of UVA absorption (UV spectrum of sunscreen in solvent)", "type": "physicochemical", "settings": "for λmax of E-517 in the solvent: 10 mg sunscreen E-517 (avobenzone) in 1 L of solvent; for λmax of E-567 in the solvent: 10 mg sunscreen E-567 (benzophenone-3) in 1 L of solvent", "protocol": "A 10-mg portion of sunscreen was dissolved in 1 L of solvent, and the UV spectrum of the solution was measured using a Cary 1 E UV-Visible spectrophotometer."}, "[2]": {"experiment": "Solubility of solid organic sunscreens in various solvents", "protocol": "Predetermined solutions (w/w) were prepared at 40-50° C. using a given solvent-sunscreen combination. The solutions were allowed to stand for 1 week at 25° C. in a constant temperature chamber. A small seed crystal was initially added at 25° C. to hasten equilibration. Solubility was measured by GLC using standard solutions to calibrate the instrument."}}, "note": "Where two headings read alike, the source gives them in different places.", "data": [{"smiles": "O=C(OCCc1ccccc1)c1ccccc1", "note": "[2-phenylethyl benzoate, 2-Phenylethyl Benzoate]", "values": [{"measurement": "λmax of E-517 in the solvent", "setting": "[1]", "value": 362, "unit": "nm"}, {"measurement": "λmax of E-567 in the solvent", "setting": "[1]", "value": 329, "unit": "nm"}]}, {"smiles": "CCO", "note": "[Ethanol, reference compound]", "values": [{"measurement": "λmax of E-517 in the solvent", "setting": "[1]", "value": 358, "unit": "nm"}, {"measurement": "λmax of E-567 in the solvent", "setting": "[1]", "value": 325, "unit": "nm"}]}, {"smiles": "O=C(Cc1cccc(C(F)(F)F)c1)OCc1ccccc1", "note": "[benzyl α,α,α-trifluoro-m-tolylacetate, Benzyl α,α,α-Trifluoro-m-tolylacetate]", "values": [{"measurement": "Solubility of Avobenzone in the solvent", "setting": "[2]; sunscreen Avobenzone, 1 week at 25° C., seeded, GLC", "value": 15, "unit": "% w/w"}, {"measurement": "Solubility of MBC in the solvent", "setting": "[2]; sunscreen MBC (4-methylbenzylidene camphor), 1 week at 25° C., seeded, GLC", "value": 34, "unit": "% w/w"}, {"measurement": "Solubility of Oxybenzone in the solvent", "setting": "[2]; sunscreen Oxybenzone, 1 week at 25° C., seeded, GLC", "value": 28, "unit": "% w/w"}]}, {"smiles": "CC(COC(=O)c1ccccc1)OC(=O)c1ccccc1", "note": "(centres unmarked) [propylene glycol dibenzoate, Propylene Glycol Dibenzoate]", "values": [{"measurement": "Solubility of MBC in the solvent", "setting": "[2]", "value": 33, "unit": "% w/w"}]}]}
